Reference: patent US20070275936A1, “Formulations and Treatment Methods” (priority 1998, published 2007)

Key:
[1] = system: BALB/c mice; assay: Reversal of immunosenescence: HBsAg vaccination of aged mice; format: in vivo; settings: for mice producing anti-HBsAg in response to secondary vaccination: groups of 8, 0.3 mg/mouse at primary vaccination
Experimental: Healthy aged (20-month) or immunologically-mature (3-month) BALB/c mice were vaccinated with hepatitis B surface antigen (HBsAg) (2 μg; Recombivax-HB; Merck) and Alum (2.75 μg). The aged mice were vaccinated with the antigen and also received a single subcutaneous injection of either 0.3 mg or 3.0 mg of 3β,7β,17β-trihydroxyandrost-5-ene (AET), BrEA or 7-oxodehydroepiandrosterone, dehydroepiandrosterone or the vehicle (placebo control). The AET, BrEA hemihydrate or dehydroepiandrosterone was present in a formulation that contained 60 mg/mL of the compound suspended in 0.1% w/v carboxymethyl cellulose sodium in 0.9% saline. 7-Oxodehydroepiandrosterone was in a formulation that contained 60 mg/mL of the compound suspended in 0.1% w/v gum arabic in 0.9% saline. A concentration of 6 mg/mL was obtained by diluting the 60 mg/mL formulation with vehicle that lacked the active substance.
Blood samples were collected 14, 21 and 34 days after treatment and the sera were analyzed by ELISA to determine the concentration of HBsAg-specific IgG (total IgG). In addition, samples obtained on day 21 were analyzed to determine the concentration of HBsAg-specific IgG1 and IgG2a subclasses. The results summarized below were average values obtained with blood samples collected 21 days after vaccination of groups of 8 mice. Subcutaneous injection was performed after shaving the hair from the thighs of each mouse. The injected volume was 50 μL for compound (3.0 mg or 0.3 mg) or placebo, and for vaccine preparation. The vehicle control consisted of carboxymethylcellulose (0.5%) in saline (0.9%). Antibody titers were determined by ELISA.
Secondary antibody response. Later, 42 days after the initial exposure to HBsAg, serum samples were taken from the mice described in the previous section and these were tested for anti-HBsAg IgG. At this time-point, vaccine-specific IgG titers were either low or undetectable. Three days later (45 days after first vaccination), the mice were injected again with HBsAg in Alum, but this time, none of the mice received immunosteroid (secondary vaccination). Serum samples collected 7 days and 14 days after the second exposure to HBsAg vaccine were assayed for anti-HBsAg antibody. […] In contrast, in aged mice that had received no immunosteroid with the first HBsAg injection, low levels of anti-HBsAg were detectable, and only in 4 of the 8 mice in this group was antibody detectable. Increases in anti-HBsAg titers were seen following secondary vaccination in aged animals that had been treated with immunosteroid in conjunction with the first HBsAg exposure. The anti-HBsAg antibody titer in serum increased following secondary vaccination in all 8 mice in the groups of aged mice that were treated at primary vaccination with the higher dose (3 mg/mouse) of AET, BrEA or 7-oxodehydroepiandrosterone, or with dehydroepiandrosterone (0.3 mg/mouse). In those aged mice that had received the lower dose (0.3 mg/mouse) of AET, BrEA or 7-oxodehydroepiandrosterone at vaccination, an intermediate response was seen, with 6 of the 8 mice producing detectable anti-HBsAg in response to secondary vaccination.

[2] = system: pentosephosphate shunt (PPS) activity in normal human RBC; assay: PPS flux in whole normal human RBC; format: cell-based
Description: The effect of BrEA on pentosephosphate shunt (PPS) activity in normal human RBC was examined using whole cells. Since glucose-6-phosphate dehydrogenase (“G6PD”) is the limiting enzyme of the PPS, PPS flux measurement is considered to better reflect G6PD activity in the whole cell compared to G6PD activity measurement in a cell lysate. […] PPS flux and G6PD activity in the whole RBC depends on a number of factors (the concentration of NADPH, NAD, and ATP, and intracellular pH), which are kept constant if the measurement is performed in the lysate and may vary in the whole RBC. Levels of G6PD activity in cells is considerably above normal basal needs and inhibition of overall G6PD activity might have no or minor consequence on PPS flux in the whole cell. […] A series of experiments were performed using varying amounts of BrEA and PPS flux was measured in unstimulated basal RBC and in methylene-blue (MB)-stimulated RBC.
Different concentrations of BrEA (0.3, 3.5 and 7 micromolar, final) were supplemented to suspensions of washed RBC suspended in RPMI, pH 7.4 at 10% hematocrit, whereby PPS flux was immediately measured without further incubation and without further washings.
In these experiments, different concentrations of BrEA ˜0.8, 8 and 80 micromolar, final) were supplemented to suspensions of washed RBC suspended in RPMI, pH 7.4 at 10% hematocrit. After a 90-min incubation at 37° C. with and without BrEA, PPS flux was measured.

| Structure (SMILES) | mice producing anti-HBsAg in response to secondary vaccination [1] [mice] | PPS flux ([2]; 0.3 μM, MB stimulated RBC, no incubation, DMSO control 5090) [micromoles/hour/ml RBC] | PPS flux ([2]; 0.3 μM, unstimulated RBC, no incubation, DMSO control 270) [micromoles/hour/ml RBC] | PPS flux ([2]; 0.8 μM, MB stimulated, 90-min incubation, average of 3 experiments, DMSO control 4890) [micromoles/hour/ml RBC] | PPS flux ([2]; 0.8 μM, unstimulated, 90-min incubation at 37° C., average of 3 experiments, DMSO control 480) [micromoles/hour/ml RBC] | PPS flux ([2]; 3.5 μM, MB stimulated RBC, no incubation, DMSO control 5090) [micromoles/hour/ml RBC] | PPS flux ([2]; 3.5 μM, unstimulated RBC, no incubation, DMSO control 270) [micromoles/hour/ml RBC] | PPS flux ([2]; 7 μM, MB stimulated RBC, no incubation, DMSO control 5090) [micromoles/hour/ml RBC] | inhibition of MB-stimulated PPS flux ([2]; 7 μM, no incubation) | PPS flux ([2]; 7 μM, unstimulated RBC, no incubation, DMSO control 270) [micromoles/hour/ml RBC] | PPS flux ([2]; 8 μM, MB stimulated, 90-min incubation, average of 3 experiments, DMSO control 4890) [micromoles/hour/ml RBC] | PPS flux ([2]; 8 μM, unstimulated, 90-min incubation, average of 3 experiments, DMSO control 480) [micromoles/hour/ml RBC] | PPS flux ([2]; 80 μM, MB stimulated, 90-min incubation, average of 3 experiments, DMSO control 4890) [micromoles/hour/ml RBC] | PPS flux ([2]; 80 μM, unstimulated, 90-min incubation, average of 3 experiments, DMSO control 480) [micromoles/hour/ml RBC] | inhibition at 8 µM ([2]; Homo sapiens, 1.5 h, 8 micromolar, 90-min incubation, p=0.006 vs control+DMSO, read-out: Inhibition of MB-stimulated PPS flux) [%] | inhibition at 80 µM ([2]; Homo sapiens, 1.5 h, 80 micromolar, 90-min incubation, p=0.002 vs control+DMSO, read-out: Inhibition of MB-stimulated PPS flux) [%] | mice with increased anti-HBsAg antibody titer following secondary vaccination ([1]; groups of 8, 3 mg/mouse at primary vaccination) [mice] |
| --- | --- | --- | --- | --- | --- | --- | --- | --- | --- | --- | --- | --- | --- | --- | --- | --- | --- |
| C[C@]12CC[C@H](O)CC1=CC[C@@H]1[C@@H]2CC[C@]2(C)C(=O)CC[C@@H]12 [DHEA, dehydroepiandrosterone, reference compound] | 8 | – | – | – | – | – | – | – | – | – | – | – | – | – | – | – | – |
| C[C@]12CC[C@H](O)C[C@@H]1CC[C@@H]1[C@@H]2CC[C@]2(C)C(=O)[C@H](Br)C[C@@H]12 [BrEA, 16α-bromo-3β-hydroxy-5α-androstane-17-one] | 6 | 5000 | 250 | 4930 | 410 | 4950 | 270 | 4660 | minor inhibition | 295 | 4430 | 450 | 3660 | 450 | 10 | 25 | 8 |
